Measured values taken from US10369130B2, “Antibacterial compounds” (AZIENDE CHIMICHE RIUNITE ANGELINI FRANCESCO A.C.R.A.F. …, priority 2014, dated 2019).
Counter-ions that a name gives are not always drawn.

Legend:
Assay type in all cases: biochemical
Conditions in all cases: single concentration (200, 100 or 50 μM), in duplicate, versus the positive control (vehicle)
DNA gyrase [1] = target: T1, DNA gyrase (Staphylococcus aureus, UniProt P0A0K8+P20831); experiment: DNA gyrase supercoiling assay (S. aureus)
T1 construct: purchased Inspiralis, UK
Method: (§1) The above compounds were tested for the inhibition of the enzyme DNA gyrase in a gyrase supercoiling assay and for the inhibition of the enzyme topoisomerase IV in a decatenation assay, in both Gram positive and Gram negative bacteria, according to the following methods.
(§2) Both the assays were carried out according to a set-up method modified from the article to Blanche F, et al. “Differential Behaviors of Staphylococcus aureus and Escherichia coli Type II DNA Topoisomerases”, Antimicrob.
(§3) The compounds were screened at single concentration (200, 100 or 50 μM), in duplicate.
(§4) Ciprofloxacin and novobiocin were used as reference compounds, at single concentration of 200 and 50 μM, respectively.
(§5) DNA Gyrase Supercoiling Assay.
(§6) Reagents from S. aureus and E. coli Gyrase Supercoiling Assay kits (Inspiralis, UK) were used. A master mix with a total volume sufficient for the number of reactions to perform was prepared with the following reagents: 5× assay buffer, relaxed pBR322 substrate (0.5 μg/reaction), RNase-DNase free water. Aliquotes of this mix were dispensed in each tube, then 10× compound stock solutions or vehicle control (DMSO), were added to each reaction tube.
(§7) Reaction was started with E. Coli (2 U/reaction) or S. aureus (1 U/reaction) gyrase enzyme addition.
(§8) A sample added with an equal volume of dilution buffer was used as negative control (without enzyme).
(§9) The reaction tubes were gentle vortexed and incubated 30 minutes at 37° C. Each reaction was stopped by adding 30 μl of Stop Buffer and 30 μl chloroform/isoamyl alcohol (24/1), briefly vortexed for 5-10 seconds and centrifuged at 20000×g for 2 minutes. Samples were loaded onto 1% agarose gel and subjected to electrophoresis for 1 hour at 80V constant voltage in TAE (40 mM Tris-acetate, 2 mM EDTA).
(§10) Data acquisition and analysis. Treatment of relaxed pBR322 with DNA gyrase converted the relaxed topoisomers (DNAs of different linking number) to the supercoiled form of the plasmid, which migrates faster on an agarose gel. An upper band might also be visible, which consists of open-circular (nicked) DNA which is present in the relaxed substrate but co-migrates with some of the relaxed topoisomers.
(§11) Bands were visualized by ethidium bromide staining (dil 1:20000) for 30 minutes followed by destaining in distilled water for 10 minutes.
(§12) In order to evaluate the compounds activity on the enzyme, the bands of supercoiled DNAs in the gel were photographed by a digital imaging system ImageQuant LAS 4000 (GE Healthcare) according to manufacturer's instructions.
(§13) The fluorescent intensity of each band was analysed by ImageQuant TL software and it was expressed as volume (volume of the uncalibrated quantity of material in the image feature after subtraction of the background intensity by using rolling ball method).
(§14) Each band intensity was compared, as percentage, to vehicle sample band intensity, which served as positive control, on the same gel.
(§15) Inhibitory activity was expressed as percent of inhibition versus the positive control.

Topoisomerase IV [2] = target: T2, Topoisomerase IV (Escherichia coli, UniProt P0AFI2+P20083); experiment: Topoisomerase IV decatenation assay (E. coli)
T2 construct: purchased Inspiralis, UK
Method: as §1, §2, §3, §4
(§16) Topoisomerase IV Decatenation Assay
(§17) S. aureus and E. coli Topoisomerase IV decatenation kits (Inspiralis, UK) were used. A master mix with a total volume sufficient for the number of reactions to perform was prepared with the following reagents: 5× assay buffer (50 mM HEPES-KOH (pH 7.6), 100 mM potassium glutamate, 10 mM magnesium acetate, 10 mM DTT, 1 mM ATP, 50 μg/ml albumin), kDNA substrate (200 ng/reaction), RNase-DNase free water. Aliquots of this mix were dispensed in each tube, then 10× compound stock solutions or vehicle control (DMSO), were added in each reaction tube.
(§18) Reaction was started with Topoisomerase IV enzyme (0.5 U/reaction) addition.
as §8
(§19) The reaction tubes were gentle vortexed and incubated 30 minutes at 37° C. Each reaction was stopped by adding 30 μl of Stop Buffer and 30 μl of chloroform/isoamyl alcohol (24/1), briefly vortexed for 5-10 seconds and centrifuged at 20000×g for 2 minutes. Samples taken from the upper phase were loaded into 1% agarose gel and subjected to electrophoresis for 1 hour at 80V constant voltage in TAE (40 mM Tris-acetate, 2 mM EDTA).
(§20) Data acquisition and analysis. Due to the high molecular mass, kDNA could not enter an agarose gel under normal electrophoresis conditions, but remained in the wells. In the presence of Topo IV topoisomerase mini-circles (2.5 Kb) were released from kDNA by decatenation and were quickly and easily resolved in the gel at relatively high voltages.
as §11
(§21) For single concentration screening assay, in order to evaluate the compounds activity on the enzymes, the bands of decatenated DNAs in the gel were photographed by a digital imaging system ImageQuant LAS 4000 (GE Healthcare) according to manufacturer's instructions.
(§22) The fluorescent intensity of each band was analyzed by ImageQuant TL software and it was expressed as volume (volume of the uncalibrated quantity of material in the image feature after subtraction of the background intensity by using rolling ball method).
as §14, §15

DNA gyrase [3] = target: T3, DNA gyrase (Escherichia coli, UniProt P0AES4+P0AES6); experiment: DNA gyrase supercoiling assay (E. coli)
T3 construct: purchased Inspiralis, UK
Method: as §1, §2, §3, §4, §5, §6, §7, §8, §9, §10, §11, §12, §13, §14, §15

Topoisomerase IV [4] = target: T4, Topoisomerase IV (Staphylococcus aureus, UniProt P0C1S7+P0C1U9); experiment: Topoisomerase IV decatenation assay (S. aureus)
T4 construct: purchased Inspiralis, UK
Method: as §1, §2, §3, §4, §16, §17, §18, §8, §19, §20, §11, §21, §22, §14, §15

T3 sequence (P0AES4 whole entry, one chain of several): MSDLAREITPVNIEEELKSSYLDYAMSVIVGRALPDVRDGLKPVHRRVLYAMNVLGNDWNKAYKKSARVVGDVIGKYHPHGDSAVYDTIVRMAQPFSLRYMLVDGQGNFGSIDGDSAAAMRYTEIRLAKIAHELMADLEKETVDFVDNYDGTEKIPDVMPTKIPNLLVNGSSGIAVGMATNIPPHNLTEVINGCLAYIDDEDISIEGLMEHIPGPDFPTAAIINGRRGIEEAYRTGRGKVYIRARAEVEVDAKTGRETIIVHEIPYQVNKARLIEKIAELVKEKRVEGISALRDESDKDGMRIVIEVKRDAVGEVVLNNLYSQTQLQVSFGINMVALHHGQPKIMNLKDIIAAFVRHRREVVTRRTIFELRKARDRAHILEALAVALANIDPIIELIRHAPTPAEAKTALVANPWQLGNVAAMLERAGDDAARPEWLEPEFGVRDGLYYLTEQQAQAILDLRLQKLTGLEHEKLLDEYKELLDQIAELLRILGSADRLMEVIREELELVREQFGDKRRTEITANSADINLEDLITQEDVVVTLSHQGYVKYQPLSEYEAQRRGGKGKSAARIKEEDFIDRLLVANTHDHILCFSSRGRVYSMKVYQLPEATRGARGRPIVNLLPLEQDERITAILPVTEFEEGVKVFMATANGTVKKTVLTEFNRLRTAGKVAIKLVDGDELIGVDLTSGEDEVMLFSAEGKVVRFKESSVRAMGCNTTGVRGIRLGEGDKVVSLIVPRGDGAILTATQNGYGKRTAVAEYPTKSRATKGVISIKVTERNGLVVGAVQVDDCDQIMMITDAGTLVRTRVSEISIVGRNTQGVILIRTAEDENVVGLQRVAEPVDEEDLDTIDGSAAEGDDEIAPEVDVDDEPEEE
T1 sequence (P20831 whole entry): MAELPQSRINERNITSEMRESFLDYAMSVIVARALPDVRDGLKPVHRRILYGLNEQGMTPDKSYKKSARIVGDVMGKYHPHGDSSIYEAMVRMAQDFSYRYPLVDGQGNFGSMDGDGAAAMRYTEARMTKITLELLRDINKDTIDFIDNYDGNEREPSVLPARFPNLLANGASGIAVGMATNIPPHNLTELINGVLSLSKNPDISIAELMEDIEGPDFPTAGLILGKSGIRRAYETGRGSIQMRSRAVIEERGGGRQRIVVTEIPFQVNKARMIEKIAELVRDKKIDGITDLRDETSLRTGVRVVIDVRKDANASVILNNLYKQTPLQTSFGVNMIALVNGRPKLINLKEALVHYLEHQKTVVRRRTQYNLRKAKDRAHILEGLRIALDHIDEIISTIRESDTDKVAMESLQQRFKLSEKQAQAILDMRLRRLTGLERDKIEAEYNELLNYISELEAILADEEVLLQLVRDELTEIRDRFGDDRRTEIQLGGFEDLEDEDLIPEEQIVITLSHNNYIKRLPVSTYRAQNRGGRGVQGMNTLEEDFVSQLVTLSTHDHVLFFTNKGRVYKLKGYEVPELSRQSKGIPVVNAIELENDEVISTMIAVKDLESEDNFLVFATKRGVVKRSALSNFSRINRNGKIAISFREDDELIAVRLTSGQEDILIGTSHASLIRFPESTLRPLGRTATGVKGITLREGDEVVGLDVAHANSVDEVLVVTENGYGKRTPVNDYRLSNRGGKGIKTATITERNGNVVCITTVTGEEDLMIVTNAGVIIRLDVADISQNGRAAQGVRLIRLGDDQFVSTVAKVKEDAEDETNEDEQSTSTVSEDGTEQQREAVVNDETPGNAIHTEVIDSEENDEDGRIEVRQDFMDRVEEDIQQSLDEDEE
T1 sequence (P0A0K8 whole entry): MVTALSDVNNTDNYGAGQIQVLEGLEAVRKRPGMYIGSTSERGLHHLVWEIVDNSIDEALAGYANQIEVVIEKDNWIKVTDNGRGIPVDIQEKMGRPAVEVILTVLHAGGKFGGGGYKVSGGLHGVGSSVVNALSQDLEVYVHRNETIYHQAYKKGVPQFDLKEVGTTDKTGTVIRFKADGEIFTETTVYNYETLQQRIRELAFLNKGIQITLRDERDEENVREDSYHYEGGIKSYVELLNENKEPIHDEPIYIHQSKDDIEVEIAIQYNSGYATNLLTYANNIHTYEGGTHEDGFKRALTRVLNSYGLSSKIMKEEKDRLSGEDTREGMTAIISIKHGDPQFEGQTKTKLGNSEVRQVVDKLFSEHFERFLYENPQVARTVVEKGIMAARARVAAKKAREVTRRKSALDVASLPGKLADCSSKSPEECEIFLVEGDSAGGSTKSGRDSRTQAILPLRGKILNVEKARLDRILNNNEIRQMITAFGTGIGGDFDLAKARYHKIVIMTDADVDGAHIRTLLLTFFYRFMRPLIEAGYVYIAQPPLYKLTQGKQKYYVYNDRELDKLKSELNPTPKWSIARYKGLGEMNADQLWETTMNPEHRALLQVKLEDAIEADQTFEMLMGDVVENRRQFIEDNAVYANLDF
T4 sequence (P0C1S7 whole entry): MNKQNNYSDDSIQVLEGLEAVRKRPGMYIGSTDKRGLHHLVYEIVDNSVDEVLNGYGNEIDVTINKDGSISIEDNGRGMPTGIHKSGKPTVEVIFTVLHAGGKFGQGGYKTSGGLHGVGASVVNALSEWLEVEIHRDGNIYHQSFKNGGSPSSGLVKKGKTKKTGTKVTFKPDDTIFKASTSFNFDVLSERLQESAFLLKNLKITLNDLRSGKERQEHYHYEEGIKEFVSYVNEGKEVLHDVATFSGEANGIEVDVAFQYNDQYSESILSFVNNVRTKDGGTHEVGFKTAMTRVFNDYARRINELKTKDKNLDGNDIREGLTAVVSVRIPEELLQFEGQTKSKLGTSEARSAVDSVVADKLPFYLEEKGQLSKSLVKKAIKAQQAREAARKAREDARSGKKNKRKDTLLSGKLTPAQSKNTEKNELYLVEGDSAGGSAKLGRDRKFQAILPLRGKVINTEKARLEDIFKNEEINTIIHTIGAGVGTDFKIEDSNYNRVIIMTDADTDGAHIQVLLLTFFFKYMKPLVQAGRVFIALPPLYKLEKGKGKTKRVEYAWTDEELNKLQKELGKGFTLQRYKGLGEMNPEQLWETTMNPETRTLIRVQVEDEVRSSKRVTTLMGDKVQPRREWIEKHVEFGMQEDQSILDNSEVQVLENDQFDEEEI
T4 sequence (P0C1U9 whole entry): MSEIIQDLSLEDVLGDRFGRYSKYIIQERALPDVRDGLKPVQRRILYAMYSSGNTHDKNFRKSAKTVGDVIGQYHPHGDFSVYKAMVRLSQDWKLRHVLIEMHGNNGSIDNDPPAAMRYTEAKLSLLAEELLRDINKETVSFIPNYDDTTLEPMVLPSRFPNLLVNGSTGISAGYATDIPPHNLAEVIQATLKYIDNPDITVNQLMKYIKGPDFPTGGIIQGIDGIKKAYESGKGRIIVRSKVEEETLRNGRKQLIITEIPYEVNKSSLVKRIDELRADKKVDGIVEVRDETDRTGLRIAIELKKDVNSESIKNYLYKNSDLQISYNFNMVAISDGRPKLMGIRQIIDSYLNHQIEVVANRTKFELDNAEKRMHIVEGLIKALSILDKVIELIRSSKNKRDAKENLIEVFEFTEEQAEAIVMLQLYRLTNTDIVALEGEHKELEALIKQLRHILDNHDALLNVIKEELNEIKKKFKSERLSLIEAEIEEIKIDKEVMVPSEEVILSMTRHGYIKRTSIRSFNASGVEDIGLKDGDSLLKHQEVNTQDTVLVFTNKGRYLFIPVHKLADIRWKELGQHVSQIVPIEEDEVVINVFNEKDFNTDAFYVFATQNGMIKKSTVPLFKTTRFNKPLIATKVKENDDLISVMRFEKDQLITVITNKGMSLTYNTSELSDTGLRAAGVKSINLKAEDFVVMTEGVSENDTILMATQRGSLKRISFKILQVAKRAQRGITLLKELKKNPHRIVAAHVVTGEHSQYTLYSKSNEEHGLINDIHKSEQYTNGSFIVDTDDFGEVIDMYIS

SMILES | % inhibition DNA gyrase (DNA gyrase [1]) | % inhibition Topo IV (Topoisomerase IV [2]) | % inhibition DNA gyrase (DNA gyrase [3]) | % inhibition Topo IV (Topoisomerase IV [4])
O=C(NCCN1CCN(c2nccc3ccccc23)CC1)c1ccccc1 [Compound 4, N-{2-[4-(isoquinolin-1-yl)piperazin-1-yl]ethyl}benzamide hydrochloride] | 84% | 53% | n/a (n/a = not active) | n/a (n/a = not active)
Cc1cc2ccccc2c(N2CCN(CCCNC(=O)c3cccnc3)CC2)n1 [Compound 21, N-{3-[4-(3-methylisoquinolin-1-yl)piperazin-1-yl]propyl}pyridine-3-carboxamide hydrochloride] | 67% | n/a (n/a = not active) | n/a (n/a = not active) | n/a (n/a = not active)
O=C(NCCCN1CCN(c2nccc3ccccc23)CC1)c1cnc2ccoc2c1 [Compound 31, N-{3-[4-(isoquinolin-1-yl)piperazin-1-yl]propyl}furo[3,2-b]pyridine-6-carboxamide hydrochloride] | 65% | n/a (n/a = not active) | n/a (n/a = not active) | n/a (n/a = not active)
Cc1ccc2c(N3CCN(CCCNC(=O)c4cccnc4)CC3)nccc2c1 [Compound 35, N-{3-[4-(6-methylisoquinolin-1-yl)piperazin-1-yl]propyl}pyridine-3-carboxamide] | 78% | n/a (n/a = not active) | n/a (n/a = not active) | n/a (n/a = not active)
COc1ccc2c(N3CCN(CCCNC(=O)c4cccnc4)CC3)nccc2c1 [Compound 36, N-{3-[4-(6-methoxyisoquinolin-1-yl)piperazin-1-yl]propyl}pyridine-3-carboxamide hydrochloride] | 90% | n/a (n/a = not active) | n/a (n/a = not active) | n/a (n/a = not active)
Fc1ccc(F)c(CNCCCN2CCN(c3nccc4ccccc34)CC2)c1 [Compound 38, N-(2,5-difluorobenzyl)-3-[4-(isoquinolin-1-yl)piperazin-1-yl]propan-1-amine hydrochloride] | 63% | n/a (n/a = not active) | n/a (n/a = not active) | n/a (n/a = not active)
O=C(NCCCN1CCN(c2nccc3ccccc23)CC1)c1cc(F)ccc1F [Compound 39, 2,5-difluoro-N-{3-[4-(isoquinolin-1-yl)piperazin-1-yl]propyl}benzamide hydrochloride] | 74% | n/a (n/a = not active) | 50% | n/a (n/a = not active)
O=C(NCCCN1CCN(c2nccc3ccccc23)CC1)c1cc2ccoc2cn1 [Compound 42, N-{3-[4-(isoquinolin-1-yl)piperazin-1-yl]propyl}furo[2,3-c]pyridine-5-carboxamide hydrochloride] | 84% | n/a (n/a = not active) | n/a (n/a = not active) | n/a (n/a = not active)
O=C(NCCCN1CCN(c2nccc3ncccc23)CC1)c1cccnc1 [Compound 43, N-{3-[4-(1,6-naphthyridin-5-yl)piperazin-1-yl]propyl}pyridine-3-carboxamide hydrochloride] | 100% | n/a (n/a = not active) | n/a (n/a = not active) | n/a (n/a = not active)
O=C(NCCCN1CCN(c2nccc3cc(F)ccc23)CC1)c1cccnc1 [Compound 45, N-{3-[4-(6-fluoroisoquinolin-1-yl)piperazin-1-yl]propyl}pyridine-3-carboxamide hydrochloride] | 81% | n/a (n/a = not active) | n/a (n/a = not active) | n/a (n/a = not active)
O=c1cc(NCCCN2CCN(c3cccc4ccccc34)CC2)c2ccccc2o1 [Compound 50, 4-({3-[4-(naphthalen-1-yl)piperazin-1-yl]propyl}amino)-2H-chromen-2-one hydrochloride] | n/a (n/a = not active) | n/a (n/a = not active) | 92% | n/a (n/a = not active)
CN(CCCN1CCN(c2nccc3ccccc23)CC1)c1cc(=O)oc2ccccc12 [Compound 53, 4-[{3-[4-(isoquinolin-1-yl)piperazin-1-yl]propyl}(methyl)amino]-2H-chromen-2-one hydrochloride] | 57% | n/a (n/a = not active) | 64% | n/a (n/a = not active)
O=c1cc(NCCCN2CCN(c3nccc4ccccc34)CC2)cc(-c2ccccc2)o1 [Compound 60, 4-({3-[4-(isoquinolin-1-yl)piperazin-1-yl]propyl}amino)-6-phenyl-2H-pyran-2-one hydrochloride] | 89% | n/a (n/a = not active) | 100% | n/a (n/a = not active)
O=c1cc(N2CCN(CCCNc3cc(=O)oc4ccccc34)CC2)c2ccccc2[nH]1 [Compound 68, 4-(4-{3-[(2-oxo-2H-chromen-4-yl)amino]propyl}piperazin-1-yl)quinolin-2(1H)-one hydrochloride] | n/a (n/a = not active) | n/a (n/a = not active) | 100% | n/a (n/a = not active)
O=c1cc(OCCCN2CCN(c3nccc4ccccc34)CC2)c2ccccc2o1 [Compound 70, 4-{3-[4-(isoquinolin-1-yl)piperazin-1-yl]propoxy}-2H-chromen-2-one hydrochloride] | 75% | n/a (n/a = not active) | 86% | n/a (n/a = not active)
O=C1CN(c2nccc3ccccc23)CCN1CCCNc1cc(=O)oc2ccccc12 [Compound 71, 4-(isoquinolin-1-yl)-1-{3-[(2-oxo-2H-chromen-4-yl)amino]propyl}piperazin-2-one hydrochloride] | n/a (n/a = not active) | n/a (n/a = not active) | 56% | n/a (n/a = not active)
O=c1cc(NC2CCCC(N3CCN(c4nccc5ccccc45)CC3)C2)c2ccccc2o1 (centres unmarked) [Compound 74, 4-({3-[4-(isoquinolin-1-yl)piperazin-1-yl]cyclohexyl}amino)-2H-chromen-2-one hydrochloride] | 61% | n/a (n/a = not active) | 65% | n/a (n/a = not active)
